Results published in patent US8981068B2, “Compositions of standardized mixtures for determining an amount of a nucleic acid” (Gene Express, Inc., priority 2005, dated 2015).

Experiments:
[1] = test system: cytochrome p450 (CYP) IAI gene; assay: MC RT-PCR with Celi competitive templates: induction of CYPIAI gene expression in β-napthoflavone-exposed BEP2D cells; assay type: cell-based, human; conditions: β-napthoflavone 10 μM, varying times, control 0.1% DMSO, cDNA loading matched by GAPDH native/competitive template bands
Procedure: (§1) In a second set of experiments, multiplex competitive reverse transcriptase polymerase chain reaction (MC RT-PCR) with competitive templates were prepared by the Celi method to evaluate the cytochrome p450 (CYP) IAI gene in β-napthoflavone-exposed BEP2D cells. The induction of CYPIAI gene expression was evaluated using both MC RT-PCR with Celi competitive templates, and Northern analysis. Competitive templates were prepared for both the CYPIAI and GAPDH genes. The primers used to prepare the competitive template for GAPDH were: […]
The PCR amplification conditions were the same as described for experiments using the competitive templates prepared for GAPDH and GSHPx by the Higuchi method except the annealing temperature was 55 degrees centigrade and the amplification was carried out for 38 cycles.
Because the native and competitive templates separate without prior restriction endonuclease digestion, samples were taken directly from the PCR reaction tube and applied to ethidium bromide stained 3% Nusieve, 1% LE agarose gels. It was then possible to quantify the products by taking a negative photograph of the gel using Polaroid 665 positive/negative instant film, subjecting the negative photograph to densitometry. […]

[2] = test system: cytochrome p450 IA1 (CYPIA1); assay: Northern analysis of CYPIAI gene expression in β-napthoflavone-exposed BEP2D cells; assay type: cell-based, human; conditions: β-napthoflavone 10 μM, varying times, control 0.1% DMSO, 32P-labeled CYPIAI cDNA probe
Procedure: as §1
RNA from BEP2D cells incubated for varying times with β-napthoflavone (10 μM) was either electrophoresed on a 1% LE formaldehyde denaturing gel for Northern analysis or MC RT-PCR amplified, as described above. For Northern analysis, following transfer of the RNA to GeneScreen, the filters were hybridized with ^32P-labeled CYPIAI cDNA.

band representing the native CYPIAI gene, exposed cells compared to control cells [1]: much more strongly represented
CYPIAI gene expression by Northern analysis [2]: increase
SMILES: O=c1cc(-c2ccccc2)oc2ccc3ccccc3c12 [β-napthoflavone]
